From patent US20250034170A1, “SMALL MOLECULE MODULATORS OF GLUCOCEREBROSIDASE ACTIVITY AND USES THEREOF” (Vanqua Bio, Inc., priority 2021, published 2025)
pEC50: −log10 of the molar value.

Target: T1, GCase (Homo sapiens, UniProt P04062)
T1 construct: endogenous in cells; host or cells: HeLa cells
T1 sequence (P04062 40-536): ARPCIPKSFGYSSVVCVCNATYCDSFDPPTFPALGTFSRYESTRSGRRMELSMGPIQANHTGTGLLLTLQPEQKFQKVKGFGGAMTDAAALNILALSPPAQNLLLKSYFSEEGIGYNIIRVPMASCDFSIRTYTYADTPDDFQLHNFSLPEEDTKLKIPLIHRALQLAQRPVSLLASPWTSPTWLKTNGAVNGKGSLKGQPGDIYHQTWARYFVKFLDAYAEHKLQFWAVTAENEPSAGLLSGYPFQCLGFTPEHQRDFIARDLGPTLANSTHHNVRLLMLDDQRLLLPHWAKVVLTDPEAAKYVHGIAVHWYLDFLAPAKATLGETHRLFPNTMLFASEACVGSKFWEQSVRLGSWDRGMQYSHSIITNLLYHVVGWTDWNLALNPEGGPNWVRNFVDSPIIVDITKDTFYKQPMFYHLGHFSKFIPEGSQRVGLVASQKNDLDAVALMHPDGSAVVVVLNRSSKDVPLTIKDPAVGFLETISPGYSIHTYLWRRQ
Experiment: activation of GCase in a live cell PFB assay in HELA cells
Type: cell-based
Method: Exemplary compounds were evaluated for activation of GCase in a live cell PFB assay in HELA cells (essentially as described in Ysselstein et al., “LRRK2 kinase activity regulates lysosomal glucocerebrosidase in neurons derived from Parkinson's disease patients” Nature Communications (2019) 10:5570). […] EC50 ranges: A: <10 μM; B: >10-50 μM; C: >50-100 μM; D: >100 μM.

[1] = activation of GCase, EC50 ranges

SMILES | pEC50 [1] | pEC50 (EC50 given as range classes)
Cc1nc(N2CCC3(C2)CN(c2cnc4cnn(CC(F)(F)F)c4n2)C3)cc(C(F)(F)F)n1 [Cmpd 552] | > 5.00 | 
FC(F)Cn1ncc2ncc(N3CCC4(CCN(c5ccnc(C(F)(F)F)c5)C4)CC3)nc21 [Compound 154, 8-[1-(2,2-difluoroethyl)-1H-pyrazolo[3,4-b]pyrazin-6-yl]-2-[2-(trifluoromethyl)pyridin-4-yl]-2,8-diazaspiro[4.5]decane] | > 5.00 | 
COc1nc(C(F)(F)F)ncc1N1CCC2(CCN(c3cnc4cnn(CC(F)F)c4n3)CC2)C1 [Cmpd 787] |  | > 5.00
O=C1CC2(CN1c1cc(C(F)(F)F)ccn1)C1CCC2CN(c2cnc3cnn(CC(F)F)c3n2)C1 (centres unmarked) [Cmpd 724] | 4.30 to 5.00 | 
O=C1CC2(CN(c3cnc4cnn(C5COC5)c4n3)C2)CN1c1ccnc(C(F)(F)F)c1 [Cmpd 348] | 4.30 to 5.00 | 
CCN1C(=O)N(c2ccc(C(F)(F)F)nc2)C(=O)C12CCN(c1ncc3c(C)nn(C4COC4)c3n1)CC2 [Cmpd 878] | 4.30 to 5.00 | 
Cc1cc(N2CC3(CCN(c4cnc5cnn(C6COC6)c5n4)C3)C2)cc(C(F)(F)F)n1 [Cmpd 1040] | 4.30 to 5.00 | 
O=C1N(c2cc(C(F)(F)F)ccn2)CCC12CCN(c1cncc(-n3cccn3)n1)CC2 [Cmpd 241] | 4.30 to 5.00 | 
O=C(c1cccc(OC(F)F)c1)N1CC2(CCN(c3cnc4cnn(CC(F)F)c4n3)C2)C1 [Cmpd 435] | > 5.00 | 
FC(F)Cn1ncc2ncc(N3CC4(CCCN(c5cccc(C(F)(F)F)n5)C4)C3)nc21 [Compound 25, 2-[1-(2,2-difluoroethyl)-1H-pyrazolo[3,4-b]pyrazin-6-yl]-6-[6-(trifluoromethyl)pyridin-2-yl]-2,6-diazaspiro[3.5]nonane] | 4.30 to 5.00 | 
O=C1N(Cc2cnc(C(F)(F)F)s2)CCC12CCN(c1cnc3cnn(CC(F)F)c3n1)CC2 [Cmpd 366] | > 5.00 | 
FC(F)Cn1ncc2ncc(N3CC4(CCN(c5cnccc5C(F)(F)F)CC4)C3)nc21 [Compound 128, 2-[1-(2,2-difluoroethyl)-1H-pyrazolo[3,4-b]pyrazin-6-yl]-7-[4-(trifluoromethyl)pyridin-3-yl]-2,7-diazaspiro[3.5]nonane] | 4.30 to 5.00 | 
CCn1c(-c2cncc(F)c2)nc2ncc(N3CCC4(CN(c5ccnc(C(F)(F)F)c5)C4)C3)nc21 [Cmpd 1044] | > 5.00 | 
Cc1nc(N2CCC3(CCN(c4cnc5cnn(CC(F)F)c5n4)C3=O)C2)cc(C(F)(F)F)n1 (centres unmarked) [Cmpd 523] | > 5.00 | 
FC(F)Cn1ncc2ncc(N3CCC4(CCCN(c5cc(C(F)(F)F)ccn5)C4)CC3)nc21 [Cmpd 224] |  | 4.30 to 5.00
O=C1CC2(CCN(c3ncc4cnn(CC(F)F)c4n3)CC2)CN1c1ccc(OCC(F)(F)F)nc1 [Cmpd 921] | 4.30 to 5.00 | 
CCN1C(=O)N(c2ccc(C(F)(F)F)nc2)C(=O)C12CCN(c1cnc3cnn(CC(F)F)c3n1)CC2 [Cmpd 849] | > 5.00 | 
Cc1nc(N2CC3(CCN(c4cnc5cnn(CC(C)(F)F)c5n4)C3)C2)cc(C(F)(F)F)n1 [Cmpd 1117] | < 4.00 | 
O=C1CC2(CCN(c3cnc4cnn(CC(F)F)c4n3)CC2)CN1c1ccnc(C(F)(F)F)c1 [Cmpd 683] | > 5.00 | 
Cc1nn(C2COC2)c2nc(N3CC4(CC(=O)N(c5ccnc(C(F)(F)F)c5)C4)C3)cnc12 [Cmpd 349] | 4.30 to 5.00 | 
CC1(C)N(c2cc(C(F)(F)F)ccn2)C(=O)CC12CCN(c1cnc3cnn(CC(F)F)c3n1)CC2 [Cmpd 662] | 4.30 to 5.00 | 
Cc1nc(N2CCC3(CCN(c4cnc5cnn(CC(F)(F)F)c5n4)CC3)C2)cc(C(F)(F)F)n1 [Cmpd 571] | 4.30 to 5.00 | 
CCC1N(c2ccc(C(F)(F)F)cn2)C(=O)CC12CCN(c1cnc3cnn(CC(F)F)c3n1)CC2 (centres unmarked) [Cmpd 851] | > 5.00 | 
O=C(Cc1csc(-c2ccccc2)n1)N1CCCC2(C1)CN(c1ccccc1)C2 [Compound 57, 2-(2-phenyl-1,3-thiazol-4-yl)-1-{2-phenyl-2,6-diazaspiro[3.5]nonan-6-yl}ethan-1-one] | 4.30 to 5.00 | 
FC(F)(F)c1ncc(N2CC3(CCN(c4cnc5cnn([C@H]6CCOC6)c5n4)C3)C2)cn1 [Cmpd 654] | 4.30 to 5.00 | 
O=C1CC2(CCN(c3ccc(C(F)(F)F)nc3)C2)CN1c1cnc2cnn(CC(F)F)c2n1 (centres unmarked) [Cmpd 507] | > 5.00 | 
O=C1N(c2cccc(C(F)(F)F)n2)CCC12CCN(c1cnc3cnn(CC(F)F)c3n1)C2 (centres unmarked) [Cmpd 203] |  | 4.30 to 5.00

SMILES | pEC50 [1] | pEC50 (EC50 given as range classes)
FC(F)Cn1ncc2ncc(N3CC4(CCN(c5cncc(C(F)(F)F)n5)CC4)C3)nc21 [Cmpd 771] | > 5.00 | 
Cc1nn(C2COC2)c2nc(N3CCC4(CN(c5cnc(C(F)(F)F)nc5)C4)C3)cnc12 [Cmpd 428] |  | > 5.00
FC(F)Cn1ncc2ncc(N3CC4(CCN(c5cncc(C(F)(F)F)c5)C4)C3)nc21 [Compound 184, 2-[1-(2,2-difluoroethyl)-1H-pyrazolo[3,4-b]pyrazin-6-yl]-6-[5-(trifluoromethyl)pyridin-3-yl]-2,6-diazaspiro[3.4]octane] |  | 4.30 to 5.00
CCCc1cnc(C(F)(F)F)cc1N1CC2(CCN(c3cnc4cnn(CC(F)F)c4n3)C2)C1 [Cmpd 1031] |  | > 5.00
FC(F)Cn1ncc2ncc(N3CCC4(CC3)CN(c3ccc(C(F)(F)F)nc3)C4)nc21 [Compound 66, 7-[1-(2,2-difluoroethyl)-1H-pyrazolo[3,4-b]pyrazin-6-yl]-2-[6-(trifluoromethyl)pyridin-3-yl]-2,7-diazaspiro[3.5]nonane] | > 5.00 | 
Fc1ccc(F)c(OC2CC3(CCCN(c4cnc5cnn(CC(F)(F)F)c5n4)C3)C2)c1 (centres unmarked) [Compound 30, 2-(2,5-difluorophenoxy)-6-[1-(2,2,2-trifluoroethyl)-1H-pyrazolo[3,4-b]pyrazin-6-yl]-6-azaspiro[3.5]nonane] | 4.30 to 5.00 | 
Cc1nn(CC(F)F)c2nc(N3CCC4(CCN(c5ccc(C(F)(F)F)nc5)C4)CC3)ncc12 [Cmpd 830] |  | > 5.00
FC(F)Cn1ncc2ncc(N3CC4(CCCN(c5cc(C(F)(F)F)ccn5)C4)C3)nc21 [Compound 21, 2-[1-(2,2-difluoroethyl)-1H-pyrazolo[3,4-b]pyrazin-6-yl]-6-[4-(trifluoromethyl)pyridin-2-yl]-2,6-diazaspiro[3.5]nonane] | 4.30 to 5.00 | 
O=C1N(c2ccc(C(F)(F)F)cn2)CCCC12CN(c1cnc3cnn(CC(F)F)c3n1)C2 [Cmpd 341] | 4.30 to 5.00 | 
Cc1cc(N2CC3(CCN(c4cnc5c(C)nn(CC(F)(F)F)c5n4)C3)C2)nc(C(F)(F)F)n1 [Cmpd 607] |  | 4.30 to 5.00
FC(F)Cn1ncc2ncc(N3CCC4(CCN(c5ccc(C(F)(F)F)cn5)C4)CC3)nc21 [Compound 144, 8-[1-(2,2-difluoroethyl)-1H-pyrazolo[3,4-b]pyrazin-6-yl]-2-[5-(trifluoromethyl)pyridin-2-yl]-2,8-diazaspiro[4.5]decane] | > 5.00 | 
FC(F)Cn1ncc2ncc(N3CCC4(CN(c5ccnc(OCC(F)(F)F)c5)C4)C3)nc21 [Cmpd 412] |  | 4.30 to 5.00
FC(F)Cn1ncc2ncc(N3CCC4(CCN(c5ccnc(C(F)(F)F)n5)C4)C3)nc21 (centres unmarked) [Cmpd 484] | > 5.00 | 
O=C1N(c2cc(C(F)(F)F)ccn2)C(=O)C2(CCN(c3cnc4cnn(CC(F)F)c4n3)CC2)N1Cc1ccc(F)cc1F [Cmpd 714] | > 5.00 | 
Cc1nc(N2CC3(CCN(c4cnc5cnn([C@H]6CCOC6)c5n4)C3)C2)cc(C(F)(F)F)n1 [Cmpd 1145] | 4.30 to 5.00 | 
O=C1N(c2nccc(C(F)(F)F)n2)CCC12CCN(c1ncc3cnn(CC(F)F)c3n1)CC2 [Cmpd 289] | 4.30 to 5.00 | 
FC(F)(F)c1ccc(N2CCCC3(C2)CN(c2cncc(-c4nncs4)n2)C3)cn1 [Compound 138, 2-[6-(1,3,4-thiadiazol-2-yl)pyrazin-2-yl]-6-[6-(trifluoromethyl)pyridin-3-yl]-2,6-diazaspiro[3.5]nonane] | 4.30 to 5.00 | 
O=C1CC2(CCN(c3ncc4cnn(CC(F)F)c4n3)CC2)CN1Cc1cnc(C(F)(F)F)nc1 [Cmpd 917] | 4.00 to 4.30 | 
Cc1cc(N2CCC3(CCN(c4nc5c(cnn5CC(F)F)c(=O)n4C)CC3)C2)nc(C(F)(F)F)n1 [Cmpd 1087] | > 5.00 | 
O=C(c1ccccc1OC(F)F)N1CC2(CCN(c3cnc4cnn(CC(F)F)c4n3)C2)C1 [Cmpd 389] |  | > 5.00
Cc1nn(CC(F)F)c2nc(N3CC4(CC3=O)CN(c3ccnc(C(F)(F)F)c3)C4)ncc12 [Cmpd 1006] |  | 4.30 to 5.00
O=C1N(c2cnc3cnn(CC(F)F)c3n2)CCC12CCN(c1cccc(C(F)(F)F)n1)CC2 [Compound 99, 2-[1-(2,2-difluoroethyl)-1H-pyrazolo[3,4-b]pyrazin-6-yl]-8-[6-(trifluoromethyl)pyridin-2-yl]-2,8-diazaspiro[4.5]decan-1-one] | > 5.00 | 
O=C1CC2(CCN(c3cnc4cnn(CC(F)F)c4n3)CC2)CN1c1cncc(C(F)(F)F)n1 [Cmpd 274] | > 5.00 | 
FC(F)Cn1ncc2ncc(N3CC4(CN(c5cc(C(F)(F)F)ccn5)CCO4)C3)nc21 [Compound 171, 2-[1-(2,2-difluoroethyl)-1H-pyrazolo[3,4-b]pyrazin-6-yl]-8-[4-(trifluoromethyl)pyridin-2-yl]-5-oxa-2,8-diazaspiro[3.5]nonane] | 4.30 to 5.00 | 
O=C1CC2(CCN(c3cnc4cnn(CC(F)F)c4n3)CC2)CN1c1cnccc1C(F)(F)F [Cmpd 682] | 4.30 to 5.00 | 
FC(F)Cn1ncc2ncc(N3CCC4(CC3)CN(c3cccc(C(F)(F)F)n3)CCO4)nc21 [Cmpd 208] |  | 4.30 to 5.00
